Measured values reported in patent US20110224160A1, “Use of Escin for Treatment of Type IV Hypersensitivity Reaction” (MARINOMED BIOTECHNOLOGIE GMBH, priority 2008, published 2011).

Tests used:
[1] = tested on: LPS mediated release of TNF alpha; assay: LPS mediated release of TNF alpha in primary human blood; type: cell-based
[2] = tested on: strong hypersensitivity reactions; assay: strong hypersensitivity reactions in an in vivo model
[3] = tested on: oxazolone induced topical inflammation in BALB/c mice; assay: oxazolone induced contact dermatitis model (ear swelling); type: in vivo
Procedure: FIG. 1: Efficacy of escin in an oxazalone induced contact dermatitis model. 3 mg/kg of escin were applied intraperitoneally (ip.) 6 h before challenge, 0.9% saline solution served as a vehicle. […] Bars represent the mean of five animals, SEM is indicated.
Escin was evaluated for anti-inflammatory activity by ip. injection in the oxazolone induced topical inflammation in BALB/c mice, which is a model of type IV hypersensitivity reaction, in particular contact dermatitis. The swelling of the challenged ear in comparison to the unchallenged control was determined as a parameter for induced contact dermatitis.

escin
LPS mediated release of TNF alpha [1]: inhibits dose-dependently | effects of strong hypersensitivity reactions [2]: reduces the effects of strong hypersensitivity reactions | inhibition of oxazolone induced ear swelling ([3]; BALB/c mice, escin 3 mg/kg ip., 6 hours after oxazolone application, challenged vs unchallenged ear): significant inhibition | induced topical inflammation in a mouse model of contact dermatitis ([3]; mouse model of contact dermatitis): reduced induced topical inflammation
